Results from PubChem BioAssay (NCI).
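Growth conditions: 96-well plates. Treatment: test compound, 48 hours, 5 concentrations. Analysis: linear interpolation between bracketing concentrations; unreached endpoints set to highest concentration. GI50 is the concentration that inhibits growth by half. TGI: total growth inhibition.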

Tests used:
Experiment in all cases: inhibition of tumour cell growth, NCI panel, 48 h
SR leukemia = tested on: SR leukemia
NCI-H226 lung = tested on: NCI-H226 lung
A498 renal = tested on: A498 renal
NCI-H23 lung = tested on: NCI-H23 lung
RXF 393 renal = tested on: RXF 393 renal
ACHN renal = tested on: ACHN renal
SK-OV-3 ovarian = tested on: SK-OV-3 ovarian
SK-MEL-28 melanoma = tested on: SK-MEL-28 melanoma
EKVX NSCLC = tested on: EKVX NSCLC
UO-31 renal = tested on: UO-31 renal
TK-10 renal = tested on: TK-10 renal
SF-539 CNS = tested on: SF-539 CNS
SF-268 CNS = tested on: SF-268 CNS
HOP-92 NSCLC = tested on: HOP-92 NSCLC
HL-60(TB) leukemia = tested on: HL-60(TB) leukemia
COLO 205 colon = tested on: COLO 205 colon
HCC-2998 colon = tested on: HCC-2998 colon
RPMI-8226 leukemia = tested on: RPMI-8226 leukemia
M14 melanoma = tested on: M14 melanoma
KM12 colon = tested on: KM12 colon
MCF7 breast = tested on: MCF7 breast
HOP-62 NSCLC = tested on: HOP-62 NSCLC
SK-MEL-5 melanoma = tested on: SK-MEL-5 melanoma
T-47D breast = tested on: T-47D breast
CAKI-1 renal = tested on: CAKI-1 renal
MDA-MB-231 breast = tested on: MDA-MB-231 breast
K-562 leukemia = tested on: K-562 leukemia
UACC-62 melanoma = tested on: UACC-62 melanoma
IGROV1 ovarian = tested on: IGROV1 ovarian
OVCAR-4 ovarian = tested on: OVCAR-4 ovarian
A549 NSCLC = tested on: A549 NSCLC
HCT-116 colon = tested on: HCT-116 colon
UACC-257 melanoma = tested on: UACC-257 melanoma
OVCAR-5 ovarian = tested on: OVCAR-5 ovarian
BT-549 breast = tested on: BT-549 breast
OVCAR-8 ovarian = tested on: OVCAR-8 ovarian
SK-MEL-2 melanoma = tested on: SK-MEL-2 melanoma
MOLT-4 leukemia = tested on: MOLT-4 leukemia
786-0 renal = tested on: 786-0 renal
OVCAR-3 ovarian = tested on: OVCAR-3 ovarian
U251 CNS = tested on: U251 CNS
SW-620 colon = tested on: SW-620 colon
DU-145 prostate = tested on: DU-145 prostate
MDA-MB-468 breast = tested on: MDA-MB-468 breast
MALME-3M melanoma = tested on: MALME-3M melanoma
NCI-H522 lung = tested on: NCI-H522 lung
HS 578T breast = tested on: HS 578T breast
CCRF-CEM leukemia = tested on: CCRF-CEM leukemia
SNB-19 CNS = tested on: SNB-19 CNS
MDA-MB-435 = tested on: MDA-MB-435
LOX IMVI melanoma = tested on: LOX IMVI melanoma
SN12C renal = tested on: SN12C renal
HT29 colon = tested on: HT29 colon
HCT-15 colon = tested on: HCT-15 colon
SF-295 CNS = tested on: SF-295 CNS
PC-3 prostate = tested on: PC-3 prostate
NCI-H460 lung = tested on: NCI-H460 lung

COc1ccc(-c2cc(-c3cc(OC)c(OC)c(OC)c3)[nH]c(=O)c2C#N)cc1
GI50 (SR leukemia): > 100 µM
TGI (SR leukemia): > 100 µM
GI50 (NCI-H226 lung): 5.6 µM
TGI (NCI-H226 lung): 24.9 µM
GI50 (A498 renal): 3.81 µM
TGI (A498 renal): 23.4 µM
GI50 (NCI-H23 lung): 18.9 µM
TGI (NCI-H23 lung): 62.1 µM
GI50 (RXF 393 renal): 2.35 µM
TGI (RXF 393 renal): 12.1 µM
GI50 (ACHN renal): 9.76 µM
TGI (ACHN renal): 32.2 µM
GI50 (SK-OV-3 ovarian): 7.52 µM
TGI (SK-OV-3 ovarian): 26.7 µM
GI50 (SK-MEL-28 melanoma): 46 µM
TGI (SK-MEL-28 melanoma): > 100 µM
GI50 (EKVX NSCLC): 21.3 µM
TGI (EKVX NSCLC): > 100 µM
GI50 (UO-31 renal): 3.54 µM
TGI (UO-31 renal): 25.2 µM
GI50 (TK-10 renal): 19.8 µM
TGI (TK-10 renal): > 100 µM
GI50 (SF-539 CNS): 5.79 µM
TGI (SF-539 CNS): 20.2 µM
GI50 (SF-268 CNS): 16.9 µM
TGI (SF-268 CNS): 79.5 µM
GI50 (HOP-92 NSCLC): 1.97 µM
TGI (HOP-92 NSCLC): 8.17 µM
GI50 (HL-60(TB) leukemia): > 100 µM
TGI (HL-60(TB) leukemia): > 100 µM
GI50 (COLO 205 colon): > 100 µM
TGI (COLO 205 colon): > 100 µM
GI50 (HCC-2998 colon): > 100 µM
TGI (HCC-2998 colon): > 100 µM
GI50 (RPMI-8226 leukemia): > 100 µM
TGI (RPMI-8226 leukemia): > 100 µM
GI50 (M14 melanoma): > 100 µM
TGI (M14 melanoma): > 100 µM
GI50 (KM12 colon): > 100 µM
TGI (KM12 colon): > 100 µM
GI50 (MCF7 breast): 23.8 µM
TGI (MCF7 breast): > 100 µM
GI50 (HOP-62 NSCLC): 7.08 µM
TGI (HOP-62 NSCLC): 24.1 µM
GI50 (SK-MEL-5 melanoma): 17.1 µM
TGI (SK-MEL-5 melanoma): 64.7 µM
GI50 (T-47D breast): 7.72 µM
TGI (T-47D breast): > 100 µM
GI50 (CAKI-1 renal): 6.96 µM
TGI (CAKI-1 renal): 31.4 µM
GI50 (MDA-MB-231 breast): 3.76 µM
TGI (MDA-MB-231 breast): 18.4 µM
GI50 (K-562 leukemia): > 100 µM
TGI (K-562 leukemia): > 100 µM
GI50 (UACC-62 melanoma): 27.2 µM
TGI (UACC-62 melanoma): > 100 µM
GI50 (IGROV1 ovarian): 15.1 µM
TGI (IGROV1 ovarian): 76.3 µM
GI50 (OVCAR-4 ovarian): 4.24 µM
TGI (OVCAR-4 ovarian): 29.8 µM
GI50 (A549 NSCLC): 14 µM
TGI (A549 NSCLC): > 100 µM
GI50 (HCT-116 colon): 55.9 µM
TGI (HCT-116 colon): > 100 µM
GI50 (UACC-257 melanoma): 76.6 µM
TGI (UACC-257 melanoma): > 100 µM
GI50 (OVCAR-5 ovarian): > 100 µM
TGI (OVCAR-5 ovarian): > 100 µM
GI50 (BT-549 breast): 16.5 µM
TGI (BT-549 breast): 48 µM
GI50 (OVCAR-8 ovarian): 4.3 µM
TGI (OVCAR-8 ovarian): 22.4 µM
GI50 (SK-MEL-2 melanoma): 14.6 µM
TGI (SK-MEL-2 melanoma): 30.8 µM
GI50 (MOLT-4 leukemia): > 100 µM
TGI (MOLT-4 leukemia): > 100 µM
GI50 (786-0 renal): 4.88 µM
TGI (786-0 renal): 20.1 µM
GI50 (OVCAR-3 ovarian): 62.7 µM
TGI (OVCAR-3 ovarian): > 100 µM
GI50 (U251 CNS): 4.48 µM
TGI (U251 CNS): 22.4 µM
GI50 (SW-620 colon): 71.8 µM
TGI (SW-620 colon): > 100 µM
GI50 (DU-145 prostate): 88.1 µM
TGI (DU-145 prostate): > 100 µM
GI50 (MDA-MB-468 breast): 17.8 µM
TGI (MDA-MB-468 breast): 47 µM
GI50 (MALME-3M melanoma): 19.3 µM
TGI (MALME-3M melanoma): 97.3 µM
GI50 (NCI-H522 lung): 20.3 µM
TGI (NCI-H522 lung): 64.4 µM
GI50 (HS 578T breast): 5.67 µM
TGI (HS 578T breast): 56.8 µM
GI50 (CCRF-CEM leukemia): > 100 µM
TGI (CCRF-CEM leukemia): > 100 µM
GI50 (SNB-19 CNS): 6.4 µM
TGI (SNB-19 CNS): 35.8 µM
GI50 (MDA-MB-435): > 100 µM
TGI (MDA-MB-435): > 100 µM
GI50 (LOX IMVI melanoma): 14 µM
TGI (LOX IMVI melanoma): 47.4 µM
GI50 (SN12C renal): 3.8 µM
TGI (SN12C renal): 61.6 µM
GI50 (HT29 colon): 71.6 µM
TGI (HT29 colon): > 100 µM
GI50 (HCT-15 colon): 96.3 µM
TGI (HCT-15 colon): > 100 µM
GI50 (SF-295 CNS): 12.3 µM
TGI (SF-295 CNS): 32.3 µM
GI50 (PC-3 prostate): 25.5 µM
TGI (PC-3 prostate): > 100 µM
GI50 (NCI-H460 lung): 12.9 µM
TGI (NCI-H460 lung): 44.3 µM
